# Measured values reported in patent publication US9499538B2, “Estrogen receptor modulators and uses thereof” (Seragon Pharmaceuticals, Inc., priority 2012, dated 2016).
# How the values were obtained:
# MCF-7 cells = experiment: Breast Cancer Cell Viability Assays (MCF-7, CellTiter-Glo); format: cell-based; details: 5 days' compound exposure; for IC50: Homo sapiens, MCF7, 120 h
# Procedure, shortened: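 MCF-7 cells (320/well, RPMI with 10% FBS) exposed for 5 days to an eleven-point semilog series, 0.3–0.000003 μM final. Viability read by CellTiter-Glo luminescence, expressed as background-corrected percent of untreated cells.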
# ER-α in MCF-7 cells = molecular target: T1, ER-α in MCF-7 cells (Homo sapiens, UniProt P03372); experiment: Breast Cancer Cell ER-α In Cell Western Assay (SP1); format: cell-based; details: 4 or 24 hr post compound addition; for Emax: MCF7, SP1 antibody, read-out: ER-α In Cell Western Assay (SP1) Max Response; for DC50: SP1 antibody, read-out: ER-α In Cell Western Assay (SP1) IC50
# T1 construct: endogenous in cells; host or cells: MCF-7
# T1 sequence (P03372 1-595): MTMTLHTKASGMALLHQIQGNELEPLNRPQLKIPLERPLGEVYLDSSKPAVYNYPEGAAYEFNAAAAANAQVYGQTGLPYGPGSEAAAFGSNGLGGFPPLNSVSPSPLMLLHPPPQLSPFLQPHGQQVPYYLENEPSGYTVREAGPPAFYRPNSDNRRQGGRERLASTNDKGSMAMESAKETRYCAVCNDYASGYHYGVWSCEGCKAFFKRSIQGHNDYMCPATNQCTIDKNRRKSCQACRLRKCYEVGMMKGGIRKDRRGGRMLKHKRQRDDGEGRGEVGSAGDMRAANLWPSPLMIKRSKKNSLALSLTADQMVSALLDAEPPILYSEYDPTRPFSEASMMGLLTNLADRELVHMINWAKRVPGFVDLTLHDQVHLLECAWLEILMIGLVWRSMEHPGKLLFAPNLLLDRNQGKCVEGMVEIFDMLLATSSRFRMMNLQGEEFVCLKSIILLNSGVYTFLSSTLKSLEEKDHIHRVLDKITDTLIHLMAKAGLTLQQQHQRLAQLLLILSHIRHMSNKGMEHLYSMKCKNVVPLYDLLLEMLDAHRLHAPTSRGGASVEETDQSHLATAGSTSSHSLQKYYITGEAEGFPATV
# Procedure, shortened: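 MCF-7 cells in charcoal-stripped FBS medium, treated with 11-point semilog dilutions (0.3–0.000003 μM final) for 4 or 24 h. Fixed cells immunostained with SP1 antibody (800 nm) and DRAQ5 DNA (700 nm); ER/DNA ratio expressed as % of untreated cells.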
SMILES,IC50 (MCF-7 cells) [nM],Emax (ER-α in MCF-7 cells) [%],DC50 (ER-α in MCF-7 cells) [nM],MCF7 Viability Assay Max Response (MCF-7 cells)
"CC/C(=C(/c1ccc(/C=C/C(=O)O)cc1)c1ccc2[nH]nc(F)c2c1)c1ccc(C#N)cc1Cl [Example 106, (E)-3-(4-((E)-2-(2-Chloro-4-cyanophenyl)-1-(3-fluoro-1H-indazol-5-yl)but-1-en-1-yl)phenyl)acrylic acid]",≤ 100,≥ 40,≤ 100,++ (++ = a single % value ≧ 40%)
CC/C(=C(/c1ccc(/C=C/C(=O)O)cc1)c1ccc2[nH]nc(F)c2c1)c1ccc(OC)cc1C#N [Example 107],≤ 100,≥ 40,≤ 100,++ (++ = a single % value ≧ 40%)
"COc1ncc(/C(=C(\c2ccc(/C=C/C(=O)O)cc2)c2ccc3[nH]nc(F)c3c2)C2CCC2)c(C(F)(F)F)n1 [Example 111, (E)-3-(4-((E)-2-Cyclobutyl-1-(3-fluoro-1H-indazol-5-yl)-2-(2-methoxy-4-(trifluoromethyl)pyrimidin-5-yl)vinyl)phenyl)acrylic acid]",≤ 100,≥ 40,≤ 100,++ (++ = a single % value ≧ 40%)
"COc1cc(C)c(/C(=C(\c2ccc(/C=C/C(=O)O)cc2)c2ccc3[nH]nc(F)c3c2)C2CCC2)cn1 [Example 112, (E)-3-(4-((E)-2-Cyclobutyl-1-(3-fluoro-1H-indazol-5-yl)-2-(6-methoxy-4-methylpyridin-3-yl)vinyl)phenyl)acrylic acid]",≤ 100,≥ 40,≤ 100,++ (++ = a single % value ≧ 40%)
"COc1ccc(/C(=C(\c2ccc(/C=C/C(=O)O)cc2)c2ccc3[nH]nc(F)c3c2)C2CC2)c(Cl)c1 [Example 114, (E)-3-(4-((E)-2-(2-Chloro-4-methoxyphenyl)-2-cyclopropyl-1-(3-fluoro-1H-indazol-5-yl)vinyl)phenyl)acrylic acid]",≤ 100,≥ 40,≤ 100,++ (++ = a single % value ≧ 40%)
"COc1ccc(/C(=C(\c2ccc(/C=C/C(=O)O)cc2)c2ccc3[nH]nc(F)c3c2)C2CC2)c(C)c1 [Example 115, (E)-3-(4-((E)-2-Cyclopropyl-1-(3-fluoro-1H-indazol-5-yl)-2-(4-methoxy-2-methylphenyl)vinyl)phenyl)acrylic acid]",≤ 100,≥ 40,≤ 100,++ (++ = a single % value ≧ 40%)
"COc1cc(C)c(/C(=C(\c2ccc(/C=C/C(=O)O)cc2)c2ccc3[nH]nc(F)c3c2)C2CC2)cn1 [Example 116, (E)-3-(4-((E)-2-Cyclopropyl-1-(3-fluoro-1H-indazol-5-yl)-2-(6-methoxy-4-methylpyridin-3-yl)vinyl)phenyl)acrylic acid]",≤ 100,≥ 40,≤ 100,++ (++ = a single % value ≧ 40%)
"CCOc1cc(C)c(/C(=C(\c2ccc(/C=C/C(=O)O)cc2)c2ccc3[nH]nc(F)c3c2)C2CC2)cn1 [Example 117, (E)-3-(4-((E)-2-Cyclopropyl-2-(6-ethoxy-4-methylpyridin-3-yl)-1-(3-fluoro-1H-indazol-5-yl)vinyl)phenyl)acrylic acid]",≤ 100,≥ 40,≤ 100,++ (++ = a single % value ≧ 40%)
"Cc1cc(C#N)ccc1/C(=C(\c1ccc(/C=C/C(=O)O)cc1)c1ccc2[nH]nc(F)c2c1)C1CC1 [Example 118, (E)-3-(4-((E)-2-(4-Cyano-2-methylphenyl)-2-cyclopropyl-1-(3-fluoro-1H-indazol-5-yl)vinyl)phenyl)acrylic acid]",≤ 100,≥ 40,≤ 100,++ (++ = a single % value ≧ 40%)
"N#Cc1ccc(/C(=C(\c2ccc(/C=C/C(=O)O)cc2)c2ccc3[nH]nc(F)c3c2)C2CC2)c(Cl)c1 [Example 119, (E)-3-(4-((E)-2-(2-Chloro-4-cyanophenyl)-2-cyclopropyl-1-(3-fluoro-1H-indazol-5-yl)vinyl)phenyl)acrylic acid]",≤ 100,≥ 40,≤ 100,++ (++ = a single % value ≧ 40%)
"N#Cc1cc(Cl)ccc1/C(=C(\c1ccc(/C=C/C(=O)O)cc1)c1ccc2[nH]nc(F)c2c1)C1CC1 [Example 120, (E)-3-(4-((E)-2-(4-Chloro-2-cyanophenyl)-2-cyclopropyl-1-(3-fluoro-1H-indazol-5-yl)vinyl)phenyl)acrylic acid]",≤ 100,≥ 40,≤ 100,++ (++ = a single % value ≧ 40%)
"COc1ccc(/C(=C(\c2ccc(/C=C/C(=O)O)cc2)c2ccc3[nH]nc(F)c3c2)C2CC2)c(C#N)c1 [Example 121, (E)-3-(4-((E)-2-(2-Cyano-4-methoxyphenyl)-2-cyclopropyl-1-(3-fluoro-1H-indazol-5-yl)vinyl)phenyl)acrylic acid]",≤ 100,≥ 40,≤ 100,++ (++ = a single % value ≧ 40%)

# Second part, led by results:
IC50 (MCF-7 cells) [nM],Emax (ER-α in MCF-7 cells) [%],DC50 (ER-α in MCF-7 cells) [nM],SMILES,MCF7 Viability Assay Max Response (MCF-7 cells)
≤ 100,≥ 40,≤ 100,CC/C(=C(/c1ccc(/C=C/C(=O)O)cc1)c1ccc2[nH]nc(F)c2c1)c1ccc(C#N)cc1C [Example 105],++ (++ = a single % value ≧ 40%)
≤ 100,≥ 40,≤ 100,"N#Cc1cc(Cl)ccc1/C(=C(\c1ccc(/C=C/C(=O)O)cc1)c1ccc2[nH]nc(F)c2c1)C1CCC1 [Example 108, (E)-3-(4-((E)-2-(4-Chloro-2-cyanophenyl)-2-cyclobutyl-1-(3-fluoro-1H-indazol-5-yl)vinyl)phenyl)acrylic acid]",++ (++ = a single % value ≧ 40%)
≤ 100,≥ 40,≤ 100,"N#Cc1cc(Cl)ccc1/C(=C(\c1ccc(/C=C/C(=O)O)cc1)c1ccc2[nH]ncc2c1)C1CCC1 [Example 109, (E)-3-(4-((E)-2-(4-Chloro-2-cyanophenyl)-2-cyclobutyl-1-(1H-indazol-5-yl)vinyl)phenyl)acrylic acid]",++ (++ = a single % value ≧ 40%)
≤ 100,≥ 40,≤ 100,"CCOc1cc(C)c(/C(=C(\c2ccc(/C=C/C(=O)O)cc2)c2ccc3[nH]nc(F)c3c2)C2CCC2)cn1 [Example 110, (E)-3-(4-((E)-2-Cyclobutyl-2-(6-ethoxy-4-methylpyridin-3-yl)-1-(3-fluoro-1H-indazol-5-yl)vinyl)phenyl)acrylic acid]",++ (++ = a single % value ≧ 40%)
≤ 100,≥ 40,≤ 100,"COc1ccc(/C(=C(\c2ccc(/C=C/C(=O)O)cc2)c2ccc3[nH]nc(F)c3c2)C2CC2)c(F)c1 [Example 113, (E)-3-(4-((E)-2-Cyclopropyl-1-(3-fluoro-1H-indazol-5-yl)-2-(2-fluoro-4-methoxyphenyl)vinyl)phenyl)acrylic acid]",++ (++ = a single % value ≧ 40%)
